Experiment: Solubility test of compound in safe solvent
Type: physicochemical
Settings: 23° C.; for dissolution amount in CHN: cyclohexanone (CHN); for dissolution amount in PGME: propylene glycol monomethyl ether (PGME)
Experimental: The dissolution amounts of compounds obtained in the above synthesis examples 1 to 6 and syntheses 1 and 2 in propylene glycol monomethyl ether (PGME) and cyclohexanone (CHN) were evaluated as follows.
• A: 5.0% by mass≦dissolution amount • B: 3.0% by mass≦dissolution amount<5.0% by mass • C: dissolution amount<3.0% by mass *dissolution amount (% by mass)=mass (g) of compound dissolved in 100 g of solvent of 23° C./(100 g of mass of solvent+mass (g) of compound dissolved in 100 g of solvent of 23° C.)×100

Row | SMILES | dissolution amount in CHN | dissolution amount in PGME
1 | CC(C)c1ccc(C2c3cc(c(O)cc3O)C(c3ccc(C(C)C)cc3)c3cc(c(O)cc3O)C(c3ccc(C(C)C)cc3)c3cc(c(O)cc3O)C(c3ccc(C(C)C)cc3)c3cc2c(O)cc3O)cc1 (stereo not shown) [CR-1A] | C (dissolution amount<3.0% by mass) | B (3.0% by mass≦dissolution amount<5.0% by mass)
2 | Oc1cc(O)c2cc1C(c1ccc(C3CCCCC3)cc1)c1cc(c(O)cc1O)C(c1ccc(C3CCCCC3)cc1)c1cc(c(O)cc1O)C(c1ccc(C3CCCCC3)cc1)c1cc(c(O)cc1O)C2c1ccc(C2CCCCC2)cc1 (stereo not shown) [CR-2A] | B (3.0% by mass≦dissolution amount<5.0% by mass) | B (3.0% by mass≦dissolution amount<5.0% by mass)
